Reference: patent publication US9732060B2, “Aminotriazine derivative and pharmaceutical composition comprising the same” (Shionogi & Co., Ltd., priority 2013, dated 2017)

Legend:
[1] = target: CYP1A2 (Homo sapiens (Human), UniProt P05177); assay: CYP inhibition test, CYP1A2; type: in vitro ADME; conditions: pooled human hepatic microsome; 7-ethoxyresorufin-O-deethylation
Experimental: (§1) Using commercially available pooled human hepatic microsome, and employing, as markers, 7-ethoxyresorufin-O-deethylation (CYP1A2), tolbutamide methyl-hydroxylation (CYP2C9), mephenytoin 4′-hydroxylation (CYP2C19), dextromethorphan O-demethylation (CYP2D6), and terfenedine hydroxylation as typical substrate metabolism reactions of human main five CYP enzyme forms (CYP1A2, 2C9, 2C19, 2D6, 3A4), an inhibitory degree of each metabolite production amount by a test compound was assessed.
(§2) The reaction conditions were as follows: substrate, 0.5 μmol/L ethoxyresorufin (CYP1A2), 100 μmol/L tolbutamide (CYP2C9), 50 μmol/L S-mephenitoin (CYP2C19), 5 μmol/L dextromethorphan (CYP2D6), 1 μmol/L terfenedine (CYP3A4); reaction time, 15 minutes; reaction temperature, 37° C. enzyme, pooled human hepatic microsome 0.2 mg protein/mL; test, drug concentration, 1.0, 5.0, 10, 20 μmol/L (four points).
(§3) Each five kinds of substrates, human hepatic microsome, or a test drug in 50 mmol/L Hepes buffer as a reaction solution was added to a […] at the composition as described above, NADPH, as a cofactor was added to initiate metabolism reactions as markers and, after the incubation at 37° C. for 15 minutes, a methanol/acetonitrile=1/1 (v/v) solution was added to stop the reaction. After the centrifugation at 3000 rpm for 15 minutes, resorufin (CYP1A2 metabolite) in the supernatant was quantified by a fluorescent multilabel counter and tributamide hydroxide (CYP2CP metabolite), mephenytoin 4′hydroxide (CYP2C19 metabolite), […] (CYP2D6 metabolite), and terfenadine alcohol (CYP3A4 metabolite) were quantified by LC/MS/MS.
(§4) Addition of only DMSO being a solvent dissolving a drug to a reaction system was adopted as a control (100%), remaining activity (%) was calculated at each concentration of a test drug added as the solution and IC50 was calculated by reverse presumption by a logistic model using a concentration and an inhibition rate.

[2] = target: CYP2C9 (Homo sapiens (Human), UniProt P11712); assay: CYP inhibition test, CYP2C9; type: in vitro ADME; conditions: pooled human hepatic microsome; tolbutamide methyl-hydroxylation
Experimental: as §1, §2, §3, §4

[3] = target: CYP2C19 (Homo sapiens (Human), UniProt P33261); assay: CYP inhibition test, CYP2C19; type: in vitro ADME; conditions: pooled human hepatic microsome; mephenytoin 4′-hydroxylation
Experimental: as §1, §2, §3, §4

[4] = target: CYP2D6 (Homo sapiens (Human), UniProt P10635); assay: CYP inhibition test, CYP2D6; type: in vitro ADME; conditions: pooled human hepatic microsome; dextromethorphan O-demethylation
Experimental: as §1, §2, §3, §4

[5] = target: CYP3A4 (Homo sapiens (Human), UniProt P08684); assay: CYP inhibition test, CYP3A4; type: in vitro ADME; conditions: pooled human hepatic microsome; terfenedine hydroxylation
Experimental: as §1, §2, §3, §4

[6] = Solubility test (1% DMSO, artificial intestinal juice pH 6.8); type: physicochemical; conditions: artificial intestinal juice pH 6.8 with 1% DMSO, 25 °C, fassgf or other biorelevant, kinetic from dmso stock, artificial intestinal juice pH 6.8, 25 degrees Celsius, read-out: Solubulity
Experimental: The solubility of a compound was determined under a condition in which 1% DMSO was added. 10 mmol/L compound solution was prepared using DMSO, and then 2 μL of the compound solution was added to 198 μL of artificial intestinal juice in pH 6.8 (to 250 mL of 0.2 mol/L potassium dihydrogen phosphate reagent solution was added 118 mL of 0.2 mol/L NaOH reagent solution and water to provide a final volume of 1000 mL). After standing at 25 degrees Celsius for 18 hours, the mixed solution was filtrated with suction. The filtrate was diluted twice with methanol/water (1/1), and then a concentration in the filtration was measured with HPLC or LC/MS/MS by the absolute calibration method.

[7] = Metabolism stability test, pooled human hepatic microsomes; type: in vitro ADME; conditions: remaining rate, human liver microsomes, 30 minutes, compound concentration 0.5 μmol/L
Experimental: Using commercially available pooled human hepatic microsomes, a test compound is reacted for a constant time, a remaining rate is calculated by comparing a reacted sample and an unreacted sample, thereby, a degree of metabolism in liver is assessed.
A reaction was performed (oxidative reaction) at 37° C. for 0 minute or 30 minutes in the presence of 1 mmol/L NADPH in 0.2 mL of a buffer (50 mmol/L tris-HCl pH 7.4, 150 mmol/L potassium chloride, 10 mmol/L magnesium chloride) containing 0.5 mg protein/mL of human liver microsomes. After the reaction, 50 μL of the reaction solution was added to 100 μL of a methanol/acetonitrile=1/1 (v/v) mixed and centrifuged at 3000 rpm for 15 minutes. The test compound in the supernatant was quantified by LC/MS/MS, and a remaining amount of the test compound after the reaction was calculated, letting a compound amount at 0 minute reaction time to be 100%.
The remaining rate at the compound concentration 0.5 μmol/L are shown below.

[8] = target: T1, human P2X3 receptor (Homo sapiens (Human), UniProt P56373); assay: Evaluation of human P2X3 receptor inhibitory activity in the presence of human serum albumin (HSA); type: cell-based; conditions: in the presence of 1% HSA (final concentration)
Experimental: Stably expressing cell line (C6BU-1 cell transfected with human P2X3 receptor gene (GenBank accession number Y07683; was used. The cells were seeded in a 96-well microtiter plate at a concentration of 8000 cells/well and cultured in the medium (7.0% fetal bovine serum, 7.0% horse serum, 1% antibiotic and antifungal, and 2.0% glutamine in DMEM) for one day at 37° C. under 5% carbon dioxide atmosphere. The medium was replaced with 4 μM Fluo-3-AM solution (20 mM HEPES, 137 mM NaCl, 5.37 mM KCl, 0.9 mM MgCl2, 1.26 mM CaCl2, 5.6 mM D-glucose, 2.5 mM probenecid, 0.5% BSA, and 0.04% Pluronic F-127, pH 7.5) and incubated at 37° C. under 5% dioxide carbon atmosphere for one hour. The plate was washed with washing buffer (20 mM HEPES, 137 mM NaCl, 5.27 mM KCl, 0.9 mM MgCl2, 1.26 mM CaCl2, 5.6 mM D-glucose, 2.5 mM probenecid, pH 7.5), and each well was added with 40 μL of this buffer. The plate was placed in High-Throughput Screening System FDSS 3000 (Hamamatsu Photonics K.K.). Measurement of fluorescence intensity by FDSS 3000 was started, and 40 μL of DMSO solutions containing 1% HSA (final concentrations) different concentrations of the test compound as prepared by dilution with dilution buffer (20 mM HEPES, 137 mM NaCl, 5.27 mM KCl, 0.9 mM MgCl2, 1.26 mM CaCl2, 5.6 mM D-glucose, 2.5 mM probenecid, 0.1% Pluronic F-127, pH 7.5) were dispensed to each well through the built-in automatic dispenser. Five minutes after, 50 nM ATP solution (50 μL) prepared by dilution with the dilution buffer was dispensed through the built-in automatic dispenser, and the measurement of fluorescence intensity was continued for 4 min. For each well, the specific maximum fluorescence intensity was calculated as the ratio of the maximum fluorescence intensity after addition of the ATP solution to the fluorescence intensity at the starting of the measurement. […] FDSS software (Hamamatsu Photonics K.K.) was used for calculation of the specific maximum fluorescence intensity. IC50 was calculated using Microsoft Excel (Microsoft Corporation) and XLfit (idbs Ltd.)

[9] = target: T1, human P2X3 receptor; assay: Evaluation of human P2X3 receptor inhibitory activity (FLIPR Ca fluorescence, ATP-evoked); type: cell-based; conditions: C6BU-1 cells stably expressing human P2X3 receptor
Experimental: Stably expressing cell line (C6BU-1 cell transfected with human P2X3 receptor gene (GenBank accession number Y07683) was used. The cells were seeded in a 384-well PDL-coated microtiter plate at a concentration of 3000 cells/well and cultured in the medium (8.3% fetal bovine serum, 8.3% horse serum, and 1% antibiotic and antifungal in DMEM) for one day at 37° C. under 5% carbon dioxide atmosphere. The medium was replaced with 4 μM Fluo-3-AM solution (20 mM HEPES, 137 mM NaCl, 2.7 mM KCl, 0.9 mM MgCl2, 5.0 mM CaCl2, 5.6 mM D-glucose, 2.5 mM probenecid, 0.5% BSA, and 0.04% Pluronic P-127, pH 7.5) and incubated at 37° C. under 5% dioxide carbon atmosphere for one hour. The plate was washed with washing buffer (20 mM HEPES, 137 mM NaCl, 2.7 mM KCl, 0.9 mM MgCl2, 5.0 mM CaCl2, 5.6 mM D-glucose, 2.5 mM probenecid, pH 7.5), and each well was added with 20 μL of the washing buffer. The plate was placed in High-Throughput Screening System FLIPR 384 (Molecular Device Co.). Measurement of fluorescence intensity by […] was started, and 20 μL of DMSO solutions containing different concentrations of the test compound as prepared by dilution with dilution buffer (20 mM HEPES, 137 mM NaCl, 2.7 mM KCl, 0.9 mM MgCl2, 5.0 mM CaCl2, 5.6 mM D-glucose, 2.5 mM probenecid, 0.1% Pluronic F-127, pH 7.5) were dispensed to each well through the built-in automatic dispenser. Five minutes after, 150 nM ATP solution (25 μL) prepared by dilution with the dilution buffer was dispensed through the built-in automatic dispenser, and the measurement of fluorescence intensity was continued for 4 min. For each well, the specific maximum fluorescence intensity was calculated as the ratio of the maximum fluorescence intensity after addition of the ATP solution to the fluorescence intensity at the starting of the measurement. […] The specific maximum fluorescence intensify and IC50 were calculated using Spotfire (Science & Technology Systems. Inc.)

T1 sequence (P56373 whole entry): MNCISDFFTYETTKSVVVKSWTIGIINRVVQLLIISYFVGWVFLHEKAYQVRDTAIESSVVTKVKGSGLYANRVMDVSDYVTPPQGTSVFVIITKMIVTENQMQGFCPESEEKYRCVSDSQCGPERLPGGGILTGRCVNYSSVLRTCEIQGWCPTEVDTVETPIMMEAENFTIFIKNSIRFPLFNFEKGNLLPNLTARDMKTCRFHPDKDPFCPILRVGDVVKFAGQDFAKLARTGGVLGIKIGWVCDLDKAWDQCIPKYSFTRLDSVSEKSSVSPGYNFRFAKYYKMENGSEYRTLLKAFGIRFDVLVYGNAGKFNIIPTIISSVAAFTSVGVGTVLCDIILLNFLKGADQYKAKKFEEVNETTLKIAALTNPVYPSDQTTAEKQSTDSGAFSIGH
CYP1A2, sequence (P05177 whole entry): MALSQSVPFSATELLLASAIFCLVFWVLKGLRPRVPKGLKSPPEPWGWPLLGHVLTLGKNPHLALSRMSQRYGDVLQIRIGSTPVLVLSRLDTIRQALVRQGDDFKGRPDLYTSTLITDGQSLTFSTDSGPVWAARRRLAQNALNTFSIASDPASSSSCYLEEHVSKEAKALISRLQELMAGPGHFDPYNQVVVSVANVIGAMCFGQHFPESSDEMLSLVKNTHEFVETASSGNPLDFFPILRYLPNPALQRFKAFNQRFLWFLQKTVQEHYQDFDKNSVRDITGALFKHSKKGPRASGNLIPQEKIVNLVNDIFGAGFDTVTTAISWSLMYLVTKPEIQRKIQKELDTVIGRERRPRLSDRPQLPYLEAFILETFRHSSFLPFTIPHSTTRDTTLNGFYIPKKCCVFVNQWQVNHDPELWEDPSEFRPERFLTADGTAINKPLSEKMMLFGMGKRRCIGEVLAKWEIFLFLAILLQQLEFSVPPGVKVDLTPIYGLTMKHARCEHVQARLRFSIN
CYP2C9, sequence (P11712 whole entry): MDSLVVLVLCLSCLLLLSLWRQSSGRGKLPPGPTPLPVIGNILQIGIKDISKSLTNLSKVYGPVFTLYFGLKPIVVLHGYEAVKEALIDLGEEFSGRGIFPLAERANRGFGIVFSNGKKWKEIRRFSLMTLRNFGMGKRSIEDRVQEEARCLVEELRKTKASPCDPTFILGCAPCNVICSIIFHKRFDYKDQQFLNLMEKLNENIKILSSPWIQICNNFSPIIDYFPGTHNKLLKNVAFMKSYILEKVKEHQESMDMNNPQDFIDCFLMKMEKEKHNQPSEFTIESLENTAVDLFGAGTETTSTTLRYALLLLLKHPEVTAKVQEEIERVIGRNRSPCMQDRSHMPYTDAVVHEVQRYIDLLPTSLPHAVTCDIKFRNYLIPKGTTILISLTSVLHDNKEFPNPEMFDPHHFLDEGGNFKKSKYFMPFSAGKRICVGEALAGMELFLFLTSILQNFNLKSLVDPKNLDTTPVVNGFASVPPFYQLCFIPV
CYP3A4, sequence (P08684 whole entry): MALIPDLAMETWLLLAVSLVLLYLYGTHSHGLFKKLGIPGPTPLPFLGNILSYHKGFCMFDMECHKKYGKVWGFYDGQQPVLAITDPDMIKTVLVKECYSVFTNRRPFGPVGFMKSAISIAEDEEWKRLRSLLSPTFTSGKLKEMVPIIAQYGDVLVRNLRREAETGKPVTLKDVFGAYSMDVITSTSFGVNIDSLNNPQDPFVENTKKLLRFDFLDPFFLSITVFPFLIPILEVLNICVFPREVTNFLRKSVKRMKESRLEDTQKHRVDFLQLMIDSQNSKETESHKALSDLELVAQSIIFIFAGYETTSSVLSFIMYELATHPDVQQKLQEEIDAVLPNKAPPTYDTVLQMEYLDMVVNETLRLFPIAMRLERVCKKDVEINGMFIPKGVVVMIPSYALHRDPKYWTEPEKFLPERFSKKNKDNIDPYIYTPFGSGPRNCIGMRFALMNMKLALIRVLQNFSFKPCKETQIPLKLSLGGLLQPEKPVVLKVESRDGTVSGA
CYP2C19, sequence (P33261 whole entry): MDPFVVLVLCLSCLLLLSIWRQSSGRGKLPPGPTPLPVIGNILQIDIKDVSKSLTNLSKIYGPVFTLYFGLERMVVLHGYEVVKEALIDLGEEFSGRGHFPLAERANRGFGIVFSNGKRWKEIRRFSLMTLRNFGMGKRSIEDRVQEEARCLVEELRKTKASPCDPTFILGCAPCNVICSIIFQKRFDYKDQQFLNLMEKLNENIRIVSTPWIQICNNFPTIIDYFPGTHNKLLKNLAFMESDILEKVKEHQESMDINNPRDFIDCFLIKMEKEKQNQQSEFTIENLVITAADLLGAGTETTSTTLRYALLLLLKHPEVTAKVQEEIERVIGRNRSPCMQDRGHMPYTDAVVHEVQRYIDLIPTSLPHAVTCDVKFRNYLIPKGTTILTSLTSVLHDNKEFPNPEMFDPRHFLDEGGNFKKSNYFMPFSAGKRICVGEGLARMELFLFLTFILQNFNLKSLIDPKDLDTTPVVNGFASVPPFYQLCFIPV
CYP2D6, sequence (P10635 whole entry): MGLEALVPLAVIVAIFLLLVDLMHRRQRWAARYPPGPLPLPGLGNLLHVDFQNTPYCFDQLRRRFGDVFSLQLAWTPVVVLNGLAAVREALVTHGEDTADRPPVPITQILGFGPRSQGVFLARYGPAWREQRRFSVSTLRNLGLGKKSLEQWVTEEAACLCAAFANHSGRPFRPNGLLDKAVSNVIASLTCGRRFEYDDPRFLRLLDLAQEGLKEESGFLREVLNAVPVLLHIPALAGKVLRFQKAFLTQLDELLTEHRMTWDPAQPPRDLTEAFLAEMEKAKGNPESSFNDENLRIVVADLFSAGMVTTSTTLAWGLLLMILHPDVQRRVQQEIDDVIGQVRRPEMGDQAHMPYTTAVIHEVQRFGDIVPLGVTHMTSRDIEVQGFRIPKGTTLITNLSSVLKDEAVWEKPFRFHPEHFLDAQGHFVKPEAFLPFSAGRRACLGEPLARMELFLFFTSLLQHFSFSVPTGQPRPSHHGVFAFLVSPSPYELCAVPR

O=c1[nH]/c(=N\c2ccc(Oc3ncccc3F)cc2)n(Cc2ccc(Cl)cc2)c(=O)n1[C@H]1C[C@H](C(=O)O)C1 [Compound I-063]
IC50 [1]: > 20000 nM
IC50 [2]: > 20000 nM
IC50 [3]: > 20000 nM
IC50 [4]: > 20000 nM
IC50 [5]: > 20000 nM
solubility at 18 h [6]: > 50 µM
Metabolism Stability [7]: 97%

C[C@@H](Cn1c(=O)[nH]/c(=N\c2ccc(Oc3cc(F)ccn3)cc2)n(Cc2ccc(Cl)cc2)c1=O)C(=O)O [Compound I-070]
IC50 [8]: 37 nM
Metabolism Stability [7]: 103%

COc1ccc(Oc2ccc(/N=c3\[nH]c(=O)n(C[C@H](C)C(=O)O)c(=O)n3Cc3ccc(Cl)cc3)cc2)nc1 [Compound I-079]
IC50 [8]: 37 nM

[2H]C([2H])([2H])c1ccc(Cn2c(=O)n(C[C@H](C)C(=O)O)c(=O)[nH]/c2=N\c2ccc(Oc3ccc(F)cn3)cc2)cc1 [Compound I-130]
IC50 [9]: 6 nM

COC(=O)[C@@H](C)Cn1c(=O)[nH]/c(=N\c2ccc(Oc3ccccn3)c(F)c2)n(C[C@H]2CC[C@H](C)CC2)c1=O [Compound I-253]
IC50 [9]: 9 nM

C[C@@H](Cn1c(=O)[nH]/c(=N\c2ccc(Oc3ccnc(C#N)c3)cc2)n(Cc2ccc(Cl)cc2)c1=O)C(=O)O [Compound R-123]
IC50 [8]: 18 nM

C[C@@H](C(=O)O)[C@H](C)n1c(=O)[nH]/c(=N\c2ccc(Oc3ccnc(Cl)c3)cc2)n(Cc2ccc(Cl)cc2)c1=O [Compound R-154]
IC50 [9]: 8 nM

Cc1ccc(Cn2c(=O)n(C[C@H](C)C(=O)O)c(=O)[nH]/c2=N\c2ccc(Oc3ncc(C)s3)cc2)cc1 [Compound R-218]
IC50 [9]: 8 nM
